Source: patent US8865911B2, “Compounds and their use as BACE inhibitors” (Astrazeneca AB, priority 2010, dated 2014)
pIC50: −log10 of the molar value.

What follows are compounds tested against T1, human β-Secretase (Homo sapiens (Human), UniProt P56817) (assay: TR-FRET assay). Conditions: sBACE-Fc, substrate (Europium)CEVNLDAEFK(Qsy7) 100 nM, pH4.5, 15 minutes at r.t.
Type: biochemical
Experimental: (§1) The β-secretase enzyme used in the TR-FRET is prepared as follows: The cDNA for the soluble part of the human β-Secretase (AA 1-AA 460) was cloned using the ASP2-Fc10-1-IRES-GFP-neoK mammalian expression vector. The gene was fused to the Fc domain of IgG1 (affinity tag) and stably cloned into HEK 293 cells.
(§2) The robotic systems Biomek FX and Velocity 11 were used for all liquid handling and the enzyme and substrate solutions were kept on ice until they were placed in the robotic system. Enzyme (9 μl) was added to the plate then 1 μl of compound in dimethylsulphoxide was added, mixed and pre-incubated for 10 minutes. Substrate (10 μl) was then added, mixed and the reaction proceeded for 15 minutes at r.t. The reaction was stopped with the addition of Stop solution (7 μl, NaAcetate, pH 9). […] The dimethylsulphoxide control, instead of test compound, defined the 100% activity level and 0% activity was defined by wells lacking enzyme (replaced with reaction buffer).

T1 sequence (P56817 22-460): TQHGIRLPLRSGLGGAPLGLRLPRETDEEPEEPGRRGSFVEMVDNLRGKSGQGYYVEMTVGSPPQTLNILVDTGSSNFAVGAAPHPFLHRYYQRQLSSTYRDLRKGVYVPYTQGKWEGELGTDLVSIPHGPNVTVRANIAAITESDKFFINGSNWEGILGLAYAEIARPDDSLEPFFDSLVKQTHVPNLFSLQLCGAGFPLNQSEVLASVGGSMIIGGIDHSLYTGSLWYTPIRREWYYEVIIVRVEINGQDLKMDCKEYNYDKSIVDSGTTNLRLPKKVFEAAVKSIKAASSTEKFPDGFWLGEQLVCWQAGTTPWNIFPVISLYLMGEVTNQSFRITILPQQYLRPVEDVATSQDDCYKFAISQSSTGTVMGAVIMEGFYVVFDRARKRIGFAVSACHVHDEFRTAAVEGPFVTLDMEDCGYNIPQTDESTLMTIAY

Question: How did the pIC50 turn out when `CC1=NC2(N=C1N)c1cc(-c3ccc(F)c(Cl)c3)ccc1CC21CCOCC1` (stereo not drawn) [Example 26c, 6′-(3-Chloro-4-fluorophenyl)-5-methyl-2″,3″,5″,6″-tetrahydro-3′H-dispiro[imidazole-2,1′-indene-2′,4″-pyran]-4-amine] was run?
Answer: The pIC50 was 6.84.

Question: `CCO[C@H]1CC[C@]2(CC1)Cc1ccc(-c3cc(C#N)cc(C(F)F)c3)cc1C21N=C(C)C(N)=N1` (stereo partly drawn) [Example 134, 3-[(1r,4r)-4″-Amino-4-ethoxy-5″-methyl-3′H-dispiro[cyclohexane-1,2′-indene-1′,2″-imidazol]-6′-yl]-5-(difluoromethyl)benzonitrile] was tested. Which pIC50 did it give?
Answer: Its pIC50 is 7.55.

Question: `CC#Cc1cncc(-c2ccc3c(c2)C2(N=C(C)C(N)=N2)[C@]2(CC[C@H](OCC)CC2)C3)c1` (stereo partly drawn) [Example 135, (1r,4r)-4-Ethoxy-5″-methyl-6′-[5-(prop-1-yn-1-yl)pyridin-3-yl]-3′H-dispiro[cyclohexane-1,2′-indene-1′,2″-imidazol]-4″-amine] was tested. Which pIC50 did it give?
Answer: The pIC50 was 7.66.

Each compound was assayed against T1, human β-Secretase (assay: Diluted TR-FRET assay). Conditions: values marked ^a; 50 times less enzyme, 6.5 h reaction time at r.t. in the dark; read-out: IC50 in TR-FRET assay (IC50 from the diluted FRET assay).
Type: biochemical
Experimental: as §1
as §2, with “Substrate (10 μl) was then added, mixed and the reaction proceeded for 15 minutes at r.t.” left out

Question: `CO[C@H]1CC[C@]2(CC1)Cc1ccc(-c3cc(F)ccc3F)cc1[C@@]21N=C(C)C(N)=N1` [Example 99, (1r,1′R,4R)-6′-(2,5-Difluorophenyl)-4-methoxy-5′-methyl-3′H-dispiro[cyclohexane-1,2′-indene-1′,2″-imidazol]-4″-amine] was tested. Which pIC50 did it give?
Answer: Its pIC50 is 8.41.

Question: `COC1CCC2(CC1)Oc1ccc(-c3cncc(Cl)c3)cc1C21N=C(C)C(N)=N1` (stereo not drawn) [Example 30d, 5′-(5-Chloropyridin-3-yl)-4-methoxy-5′-methyldispiro[cyclohexane-1,2′-[1]benzofuran-3′,2″-imidazol]-4″-amine] was tested. Which pIC50 did it give?
Answer: The pIC50 was 8.28.

Question: How did the pIC50 turn out when `CO[C@H]1CC[C@]2(CC1)Cc1ccc(-c3cncc(F)c3)cc1C21N=C(C)C(N)=N1` (stereo partly drawn) [Example 20f, (1r,4r)-6′-(5-Fluoropyridin-3-yl)-4-methoxy-5″-methyl-3′H-dispiro[cyclohexane-1,2′-indene-1′,2″-imidazol]-4″-amine] was run?
Answer: Its pIC50 is 8.26.

Question: With `CO[C@H]1CC[C@]2(CC1)Cc1ccc(-c3cc(C)cc(C#N)c3)cc1C21N=C(C)C(N)=N1` (stereo partly drawn) [Example 74, 3-[(1r,4r)-4″-Amino-4-methoxy-5″-methyl-3′H-dispiro[cyclohexane-1,2′-indene-1′,2″-imidazol]-6′-yl]-5-methylbenzonitrile] as the compound, how does the pIC50 read?
Answer: Its pIC50 is 8.59.

Question: With `CO[C@H]1CC[C@]2(CC1)Cc1ccc(NC(=O)c3ncc(Cl)cc3C)cc1C21N=C(C)C(N)=N1` (stereo partly drawn) [Example 20w, N-[(1r,4r)-4″-Amino-4-methoxy-5″-methyl-3′H-dispiro[cyclohexane-1,2′-indene-1′,2″-imidazol]-6′-yl]-5-chloro-3-methylpyridine-2-carboxamide] as the compound, how does the pIC50 read?
Answer: The pIC50 was 7.74.

Question: How did the pIC50 turn out when `CO[C@H]1CC[C@]2(CC1)Cc1ccc(-c3cc(Cl)cnc3C)cc1C21N=C(C)C(N)=N1` (stereo partly drawn) [Example 62, (1r,4r)-6′-(5-Chloro-2-methylpyridin-3-yl)-4-methoxy-5″-methyl-3′H-dispiro[cyclohexane-1,2′-indene-1′,2″-imidazol]-4″-amine] was run?
Answer: Its pIC50 is 7.72.

Question: With `CC#Cc1cc(-c2ccc3c(c2)C2(N=C(C)C(N)=N2)[C@]2(CC[C@H](OC)CC2)C3)ccn1` (stereo partly drawn) [Example 20y, (1r,4r)-4-Methoxy-5″-methyl-6′-[2-(prop-1-yn-1-yl)pyridin-4-yl]-3′H-dispiro[cyclohexane-1,2′-indene-1′,2″-imidazol]-4″-amine] as the compound, how does the pIC50 read?
Answer: The pIC50 was 8.31.

Question: How did the pIC50 turn out when `CC#Cc1ccnc(-c2ccc3c(c2)C2(N=C(C)C(N)=N2)[C@]2(CC[C@H](OC)CC2)C3)c1` (stereo partly drawn) [Example 20b, (1r,4r)-4-Methoxy-5″-methyl-6′-[4-(prop-1-yn-1-yl)pyridin-2-yl]-3′H-dispiro[cyclohexane-1,2′-indene-1′,2″-imidazol]-4″-amine] was run?
Answer: Its pIC50 is 8.64.

Question: `CC#Cc1cncc(-c2ccc3c(c2)C2(N=C(C)C(N)=N2)C2(CCC(OC)CC2)O3)c1` (stereo not drawn) [Example 30c] was tested. Which pIC50 did it give?
Answer: The pIC50 was 8.85.

Question: `COc1cc(C#N)cc(-c2ccc3c(c2)[C@@]2(N=C(C)C(N)=N2)[C@]2(CC[C@H](OC(F)F)CC2)C3)c1` (racemic) [Example 106, 3-[(1r,4r)-4″-Amino-4-(difluoromethoxy)-5″-methyl-3′H-dispiro[cyclohexane-1,2′-indene-1′,2″-imidazol]-6′-yl]-5-methoxybenzonitrile] was tested. Which pIC50 did it give?
Answer: The pIC50 was 9.00.

Question: How did the pIC50 turn out when `CO[C@H]1CC[C@]2(CC1)Cc1ccc(-c3ccccc3)cc1[C@@]21N=C(C)C(N)=N1` [Example 90, (1r,1′R,4R)-4-Methoxy-5″-methyl-6′-phenyl-3′H-dispiro[cyclohexane-1,2′-indene-1′,2″-imidazol]-4″-amine] was run?
Answer: The pIC50 was 7.89.

Question: With `CO[C@H]1CC[C@]2(CC1)Cc1ccc(-c3cc(C#N)cc(C(F)F)c3)cc1[C@@]21N=C(C)C(N)=N1` [Example 86, 3-[(1r,1′R,4R)-4″-Amino-4-methoxy-5″-methyl-3′H-dispiro[cyclohexane-1,2′-indene-1′,2″-imidazol]-6′-yl]-5-(difluoromethyl)benzonitrile] as the compound, how does the pIC50 read?
Answer: Its pIC50 is 8.82.

Question: How did the pIC50 turn out when `CCc1cc(C#N)cc(-c2ccc3c(c2)C2(N=C(C)C(N)=N2)[C@]2(CC[C@H](OC)CC2)C3)c1` (stereo partly drawn) [Example 95, 3-[(1r,4r)-4″-Amino-4-methoxy-5″-methyl-3′H-dispiro[cyclohexane-1,2′-indene-1′,2″-imidazol]-6′-yl]-5-ethylbenzonitrile] was run?
Answer: Its pIC50 is 8.28.

Question: With `CCC1=NC2(N=C1N)c1cc(-c3cncc(C#N)c3)ccc1C[C@]21CC[C@@H](OC)CC1` (stereo partly drawn) [Example 69, 5-[(1r,4r)-4″-Amino-5″-ethyl-4-methoxy-3′H-dispiro[cyclohexane-1,2′-indene-1′,2″-imidazol]-6′-yl]pyridine-3-carbonitrile] as the compound, how does the pIC50 read?
Answer: Its pIC50 is 7.68.

Question: How did the pIC50 turn out when `CC1=NC2(N=C1N)c1cc(-c3cc(Cl)cc(C#N)c3)ccc1C[C@]21CC[C@@H](OC(F)F)CC1` (stereo partly drawn) [Example 108, 3-[(1r,4r)-4″-Amino-4-(difluoromethoxy)-5″-methyl-3′H-dispiro[cyclohexane-1,2′-indene-1′,2″-imidazol]-6′-yl]-5-chlorobenzonitrile] was run?
Answer: Its pIC50 is 8.89.

Question: How did the pIC50 turn out when `COc1ccc(F)c(-c2ccc3c(c2)[C@@]2(N=C(C)C(N)=N2)[C@]2(CC[C@H](OC)CC2)C3)c1` [Example 98, (1r,1′R,4R)-6′-(2-Fluoro-5-methoxyphenyl)-4-methoxy-5″-methyl-3′H-dispiro[cyclohexane-1,2′-indene-1′,2″-imidazol]-4″-amine] was run?
Answer: The pIC50 was 8.82.

Each compound was assayed on sAPPβ release, SH-SY5Y cells (assay: sAPPβ release assay). Conditions: Homo sapiens, SH-SY5Y, 17 h, compounds incubated 17 h, MSD detection.
Type: cell-based
Experimental: Thaw cells and seed at a conc. of around 10000 cells/well in DMEM/F-12 with Glutamax, 10% FCS and 1% non-essential amino acids to a 384-well tissue culture treated plate, 100 μL cell susp/well. […] The cell medium was removed, followed by addition of 30 μL compound diluted in DMEM/F-12 with Glutamax, 10% FCS, 1% non-essential amino acids and 1% PeSt to a final conc. of 1% DMSO. The compounds were incubated with the cells for 17 h (overnight) at 37° C., 5% CO2. Meso Scale Discovery (MSD) plates were used for the detection of sAPPβ release. MSD sAPPβ plates were blocked in 1% BSA in Tris wash buffer (40 μL/well) for 1 h on shake at r.t. and washed 1 time in Tris wash buffer (40 μL/well). 20 μL of medium was transferred to the pre-blocked and washed MSD sAPPβ microplates, and the cell plates were further used in an ATP assay to measure cytotoxicity. The MSD plates were incubated with shaking at r.t. for 2 h and the media discarded. 10 μL detection antibody was added (1 nM) per well followed by incubation with shaking at r.t. for 2 h and then discarded. 40 μL Read Buffer was added per well and the plates were read in a SECTOR Imager.

Question: How did the pIC50 turn out when `CC#Cc1cncc(-c2ccc3c(c2)C2(N=C(N)C(CC)=N2)[C@]2(CC[C@H](OC)CC2)C3)c1` (single isomer, unassigned) [Example 68 Isomer 1, (1r,4r)-5″-ethyl-4-methoxy-6′-[5-(prop-1-yn-1-yl)pyridin-3-yl]-3′H-dispiro[cyclohexane-1,2′-indene-1′,2″-imidazol]-4″-amine] was run?
Answer: Its pIC50 is 9.42.

Same assay, conditions: compounds incubated 17 h, MSD detection

Question: With `CO[C@H]1CC[C@]2(CC1)Cc1ccc(C#CC(C)(C)C)cc1C21N=C(C)C(N)=N1` (single isomer, unassigned; isomer 1) [Example 20h Isomer 1, (1r,4r)-6′-(3,3-dimethylbut-1-yn-1-yl)-4-methoxy-5″-methyl-3′H-dispiro[cyclohexane-1,2′-indene-1′,2″-imidazol]-4″-amine] as the compound, how does the pIC50 read?
Answer: The pIC50 was 6.56.

Question: With `CC1=NC2(CC3(CCCOC3)Oc3ccc(-c4cccc(Cl)c4)cc32)N=C1N` (single isomer, unassigned) [Example 46a Isomer 1, 6′-(3-Chlorophenyl)-5-methyl-5″,6″-dihydro-4″H-dispiro[imidazole-2,4′-chromene-2′,3″-pyran]-4-amine] as the compound, how does the pIC50 read?
Answer: Its pIC50 is 6.38.

Question: With `CC1=NC2(CC(C3CCOC(C)(C)C3)Oc3ccc(-c4cccc(Cl)c4)cc32)N=C1N` (racemic) [Example 50 Isomeric mixture 2, 6-(3-Chlorophenyl)-2-(2,2-dimethyltetrahydro-2H-pyran-4-yl)-5′-methylspiro[chroman-4,2′-imidazol]-4′-amine] as the compound, how does the pIC50 read?
Answer: The pIC50 was 7.77.

Same assay, conditions: compounds incubated 17 h, MSD detection, listed as 71 Isomer 2

Question: With `CCC1=NC2(N=C1N)c1cc(-c3cccc(C#N)c3)ccc1C[C@]21CC[C@@H](OC)CC1` (single isomer, unassigned) [Example 71 Isomer 2, 3-[(1r,4r)-4″-amino-5″-ethyl-4-methoxy-3′H-dispiro-[cyclohexane-1,2′-indene-1′,2″-imidazol]-6′-yl]benzonitrile] as the compound, how does the pIC50 read?
Answer: The pIC50 was 6.12.
